Source: US20060069132A1, “Azolecarboxamide herbicides” (priority 2004, published 2006)

Tests used:
lambsquarters = assay: Test B pre-/postemergence herbicide test; assay type: in vivo, Chenopodium album; settings: for Lambsquarters plant response rating: postemergence
In short: (§1)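 Test chemicals in a non-phytotoxic solvent mixture with surfactant were applied preemergence to seeded species and postemergence to plants 2-18 cm tall (1- to 4-leaf stage); rice and barnyardgrass were also tested in a flooded paddy at the 2-leaf stage. Visual rating versus controls after 13-15 days in greenhouse, scale 0 (no effect) to 100 (complete control).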

velvetleaf = assay: Test B pre-/postemergence herbicide test; assay type: in vivo, Abutilon theophrasti; settings: for Velvetleaf plant response rating: postemergence
In short: as §1

cocklebur = assay: Test B pre-/postemergence herbicide test; assay type: in vivo, Xanthium strumarium; settings: for Cocklebur plant response rating: postemergence, scale 0 (no effect) to 100 (complete control)
In short: (§2)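 Species tested were Echinochloa crus-galli, Ipomoea coccinea, Xanthium strumarium and Oryza sativa, treated both before emergence and at the 1- to 4-leaf stage; rice and barnyardgrass were also tested under flooding at 2 leaves. Greenhouse incubation lasted 13–15 days before visual 0–100 scoring.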

rice [1] = assay: Test B pre-/postemergence herbicide test; assay type: in vivo, Oryza sativa; settings: 0 = no effect, 100 = complete control, preemergence
In short: as §1

wheat = assay: Test B postemergence herbicide test; assay type: in vivo, Triticum aestivum; parameters: key to Wheat plant response rating: 0 = no effect, 100 = complete control; settings: postemergence
In short: (§3)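 Treated at 2-leaf (paddy) or 1–4-leaf, 2–18 cm (postemergence); greenhouse 13–15 d; visual score vs control, 0 none to 100 complete control; dash = not tested.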

ducksalad [2] = assay: Test C flooded paddy test; assay type: in vivo, Heteranthera limosa
Surinam grass = assay: Test B pre-/postemergence herbicide test; assay type: in vivo, Urochloa decumbens; settings: for Surinam Grass plant response rating: postemergence
In short: as §1

barnyardgrass [3] = assay: Test B flooded paddy test; assay type: in vivo, Echinochloa crus-galli; settings: 1000 g ai/ha, scale 0 to 100 (0 no effect, 100 complete control)
In short: (§4)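 Plants grow to 1- to 4-leaf stage (2–18 cm) for postemergence spraying, or to 2-leaf stage for the paddy test. Formulated compound is applied. Greenhouse holding lasts 13–15 days. Response is scored visually relative to controls, 0 no effect to 100 complete control; a dash means no result.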

barnyardgrass [4] = assay: Test B pre-/postemergence herbicide test; assay type: in vivo, Echinochloa crus-galli; settings: for Barnyardgrass plant response rating: postemergence, scale 0 (no effect) to 100 (complete control)
In short: as §2

rice [5] = assay: Test C flooded paddy test; assay type: in vivo, Oryza sativa
In short: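 Plants were grown to the 1- to 4-leaf stage (2–18 cm) and then treated postemergence, or grown to the 2-leaf stage for the flooded paddy test. They were held in a greenhouse for 12 to 14 days and then scored by eye against controls, where 0 is no effect and 100 is complete control.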

large crabgrass = assay: Test B pre-/postemergence herbicide test; assay type: in vivo, Digitaria sanguinalis; settings: for Crabgrass, Large plant response rating: postemergence
In short: as §1

corn = assay: Test B pre-/postemergence herbicide test; assay type: in vivo, Zea mays; settings: for Corn plant response rating: postemergence
In short: as §1

[6] = test system: small flower umbrella sedge; assay: Test B flooded paddy test; assay type: in vivo, Cyperus difformis; settings: 1000 g ai/ha, scale 0 to 100 (0 no effect, 100 complete control)
In short: as §4

blackgrass = assay: Test B postemergence herbicide test; assay type: in vivo, Alopecurus myosuroides; settings: postemergence, visual rating, scale 0 (no effect) to 100 (complete control)
In short: as §4

barnyardgrass [7] = assay: Test C flooded paddy test; assay type: in vivo, Echinochloa crus-galli
In short: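 After a postemergence application at 1 to 4 leaves (plants 2–18 cm high), or at 2 leaves for barnyardgrass in flooded paddy, plants stayed in the greenhouse for 12 to 14 days. Damage was then judged visually relative to control plants, with 100 indicating complete control.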

[8] = test system: smallflower umbrella sedge; assay: Test C flooded paddy test; assay type: in vivo, Cyperus difformis
pigweed = assay: Test B pre-/postemergence herbicide test; assay type: in vivo, Amaranthus retroflexus; settings: for Pigweed plant response rating: postemergence
In short: as §1

rice [9] = assay: Test B flooded paddy test; assay type: in vivo, Oryza sativa; settings: 1000 g ai/ha, scale 0 to 100 (0 no effect, 100 complete control)
In short: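 Paddy species grown to the 2-leaf stage under flooding; blackgrass sprayed postemergence at 2–18 cm (1- to 4-leaf stage). Plants kept in a greenhouse for 13 to 15 days, then visually rated against controls on 0 (no effect) to 100 (complete control).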

morningglory = assay: Test B pre-/postemergence herbicide test; assay type: in vivo, Ipomoea coccinea; settings: for Morningglory plant response rating: postemergence
In short: as §2

giant foxtail = assay: Test B pre-/postemergence herbicide test; assay type: in vivo, Setaria faberi; settings: for Foxtail, Giant plant response rating: postemergence
In short: as §1

ducksalad [10] = assay: Test B flooded paddy test; assay type: in vivo, Heteranthera limosa; settings: 1000 g ai/ha, scale 0 to 100 (0 no effect, 100 complete control)
In short: as §4

wild oat = assay: Test B postemergence herbicide test; assay type: in vivo, Avena fatua; settings: postemergence
In short: as §3

[11] = 500 g ai/ha, visual rating, 0 = no effect, 100 = complete control, preemergence
[12] = 125 g ai/ha, visual rating, scale 0 (no effect) to 100 (complete control)
[13] = 500 g ai/ha, scale 0 to 100, 0 is no effect, 100 is complete control
[14] = 125 g ai/ha, 0 = no effect, 100 = complete control, preemergence
[15] = 125 g ai/ha, scale 0 to 100 (0 no effect, 100 complete control)
[16] = 250 g ai/ha, scale of 0 to 100, 0 is no effect, 100 is complete control
[17] = 500 g ai/ha, visual rating after 12 to 14 days, scale 0 to 100 (0 no effect, 100 complete control)

## CCn1nc(C(C)(C)C)cc1C(=O)Nc1cncc(C(=O)N(C)C)c1 [Compound 258]
lambsquarters; [11]
  Plant response rating, Lambsquarters: 100
lambsquarters; [12]
  Lambsquarters plant response rating: 30
lambsquarters; [13]
  Lambsquarters plant response rating: 70
velvetleaf; [14]
  Velvetleaf plant response rating (0 to 100 scale): 0
velvetleaf; [11]
  Plant response rating, Velvetleaf: 60
velvetleaf; [12]
  Velvetleaf plant response rating: 0
velvetleaf; [13]
  Velvetleaf plant response rating: 0
cocklebur; [14]
  Cocklebur plant response rating (0 to 100 scale): 0
cocklebur; [11]
  Plant response rating, Cocklebur: 0
cocklebur; 125 g ai/ha, visual rating
  Cocklebur plant response rating: 20
cocklebur; 500 g ai/ha, visual rating
  Cocklebur plant response rating: 30
Rice [1]; 125 g ai/ha
  Rice plant response rating (0 to 100 scale): 20
Rice [1]; 500 g ai/ha, visual rating
  Plant response rating, Rice: 90
wheat; [12]
  Wheat plant response rating: 20
wheat; [13]
  Wheat plant response rating: 20
Ducksalad [2]; 62 g ai/ha, scale 0 to 100
  Ducksalad plant response rating: 15
Ducksalad [2]; [15]
  Ducksalad plant response rating: 45
Ducksalad [2]; [16]
  Ducksalad plant response rating: 70
Ducksalad [2]; [17]
  Plant response rating, Ducksalad: 90
Surinam grass; [14]
  Surinam Grass plant response rating (0 to 100 scale): 0
Surinam grass; [11]
  Plant response rating, Surinam Grass: 30
Surinam grass; [12]
  Surinam Grass plant response rating: 0
Surinam grass; [13]
  Surinam Grass plant response rating: 10
Barnyardgrass [3]
  Barnyardgrass plant response rating: 70
Barnyardgrass [4]; [14]
  Barnyardgrass plant response rating (0 to 100 scale): 70
Barnyardgrass [4]; [11]
  Plant response rating, Barnyardgrass: 90
Barnyardgrass [4]; 125 g ai/ha, visual rating
  Barnyardgrass plant response rating: 0
Barnyardgrass [4]; 500 g ai/ha, visual rating
  Barnyardgrass plant response rating: 0
Rice [5]; 62 g ai/ha, scale 0 to 100
  Rice plant response rating: 0
Rice [5]; [15]
  Rice plant response rating: 0
Rice [5]; [16]
  Rice plant response rating: 5
Rice [5]; [17]
  Plant response rating, Rice: 70
Large crabgrass; [14]
  Crabgrass, Large plant response rating (0 to 100 scale): 10
Large crabgrass; [11]
  Plant response rating, Crabgrass, Large: 50
Large crabgrass; [12]
  Crabgrass, Large plant response rating: 0
Large crabgrass; [13]
  Crabgrass, Large plant response rating: 0
corn; [14]
  Corn plant response rating (0 to 100 scale): 0
corn; [11]
  Plant response rating, Corn: 0
corn; [12]
  Corn plant response rating: 0
corn; [13]
  Corn plant response rating: 10
[6]
  Sedge, Umbrella plant response rating: 70
blackgrass; 125 g ai/ha
  Blackgrass plant response rating: 10
blackgrass; 500 g ai/ha
  Blackgrass plant response rating: 10
Barnyardgrass [7]; 62 g ai/ha, scale 0 to 100 (0 no effect, 100 complete control)
  Barnyardgrass plant response rating: 0
Barnyardgrass [7]; [15]
  Barnyardgrass plant response rating: 0
Barnyardgrass [7]; [16]
  Barnyardgrass plant response rating: 15
Barnyardgrass [7]; [17]
  Plant response rating, Barnyardgrass: 45
[8]; 62 g ai/ha, scale 0 to 100
  Sedge, Umbrella plant response rating: 0
[8]; [15]
  Sedge, Umbrella plant response rating: 20
[8]; [16]
  Sedge, Umbrella plant response rating: 70
[8]; [17]
  Plant response rating, Sedge, Umbrella: 80
pigweed; [14]
  Pigweed plant response rating (0 to 100 scale): 0
pigweed; [11]
  Plant response rating, Pigweed: 100
pigweed; [12]
  Pigweed plant response rating: 50
pigweed; [13]
  Pigweed plant response rating: 60
Rice [9]
  Rice plant response rating: 80
morningglory; [14]
  Morningglory plant response rating (0 to 100 scale): 0
morningglory; [11]
  Plant response rating, Morningglory: 10
morningglory; [12]
  Morningglory plant response rating: 0
morningglory; [13]
  Morningglory plant response rating: 10
Giant foxtail; [14]
  Foxtail, Giant plant response rating (0 to 100 scale): 0
Giant foxtail; [11]
  Plant response rating, Foxtail, Giant: 20
Giant foxtail; [12]
  Foxtail, Giant plant response rating: 0
Giant foxtail; [13]
  Foxtail, Giant plant response rating: 0
Ducksalad [10]
  Ducksalad plant response rating: 90
Wild oat; [12]
  Oat, Wild plant response rating: 20
Wild oat; [13]
  Oat, Wild plant response rating: 30
